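Cells were grown in 96-well plates and exposed to each compound for 48 hours at five concentrations; endpoints were interpolated linearly between bracketing concentrations, or set to the highest concentration if not reached. At the GI50, growth is halved.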 The source made the active and inactive calls. Cut-off read from the data, not from the text of the source: active = GI50 up to about 1.1 µM and inactive = higher.
Experiments:
Test in all cases: inhibition of tumour cell growth, NCI panel, 48 h
786-0 = tested on: 786-0
BT-549 = tested on: BT-549
HCT-116 = tested on: HCT-116
HT-29 = tested on: HT-29
K562 = tested on: K562
KM12 = tested on: KM12
NCI-H226 = tested on: NCI-H226
NCI-H23 = tested on: NCI-H23
NCI/ADR-RES = tested on: NCI/ADR-RES
OVCAR-5 = tested on: OVCAR-5
SF-295 = tested on: SF-295
SK-MEL-2 = tested on: SK-MEL-2
SK-MEL-5 = tested on: SK-MEL-5
SK-OV-3 = tested on: SK-OV-3
SN12C = tested on: SN12C
SNB-19 = tested on: SNB-19
SR = tested on: SR
TK-10 = tested on: TK-10
A498 = tested on: A498
IGROV-1 = tested on: IGROV-1

Measured: GI50

COc1ccc(N2C(=O)CS(=O)(=O)C2c2cccc(Oc3ccccc3)c2)cc1 (stereo not given)
inactive: 786-0 4.7 µM | BT-549 7.74 µM | HCT-116 2.17 µM | HT-29 3.68 µM | K562 1.71 µM | KM12 4.4 µM | NCI-H226 4.79 µM | NCI-H23 4.99 µM | NCI/ADR-RES 2.89 µM | OVCAR-5 7.73 µM | SF-295 3.94 µM | SK-MEL-2 3.56 µM | SK-MEL-5 4.57 µM | SK-OV-3 4.38 µM | SN12C 4.65 µM | SNB-19 5.53 µM | SR 1.92 µM | TK-10 2.65 µM

CC(=O)N[C@@H](Cc1ccc(O)cn1)C(=O)NCc1ccc(Cl)cc1
inactive: 786-0 > 100 µM | A498 > 100 µM | BT-549 > 100 µM | HCT-116 > 100 µM | HT-29 > 100 µM | IGROV-1 > 100 µM | K562 > 100 µM | KM12 > 100 µM | NCI-H226 > 100 µM | NCI-H23 > 100 µM | NCI/ADR-RES > 100 µM | OVCAR-5 > 100 µM | SF-295 > 100 µM | SK-MEL-2 > 100 µM | SK-MEL-5 > 100 µM | SK-OV-3 > 100 µM | SN12C > 100 µM | SNB-19 > 100 µM | TK-10 > 100 µM

CCN1C2=NCCN2S(=O)(=O)c2ccccc21
inactive: 786-0 > 100 µM | A498 > 100 µM | BT-549 > 100 µM | HCT-116 > 100 µM | HT-29 > 100 µM | IGROV-1 > 100 µM | K562 > 100 µM | KM12 > 100 µM | NCI-H226 > 100 µM | NCI-H23 > 100 µM | NCI/ADR-RES > 100 µM | OVCAR-5 > 100 µM | SF-295 > 100 µM | SK-MEL-2 > 100 µM | SK-MEL-5 > 100 µM | SK-OV-3 > 100 µM | SN12C > 100 µM | SNB-19 > 100 µM | TK-10 > 100 µM

CN(C)CCNC(=O)Cn1ccc(=O)c2ccc([N+](=O)[O-])cc21
inactive: 786-0 > 100 µM | A498 > 100 µM | HCT-116 > 100 µM | HT-29 52 µM | IGROV-1 > 100 µM | K562 > 100 µM | KM12 > 100 µM | NCI-H226 > 100 µM | NCI-H23 > 100 µM | NCI/ADR-RES > 100 µM | OVCAR-5 > 100 µM | SF-295 > 100 µM | SK-MEL-2 > 100 µM | SK-MEL-5 > 100 µM | SK-OV-3 > 100 µM | SN12C > 100 µM | SNB-19 > 100 µM | SR > 100 µM | TK-10 > 100 µM

S=C(S)NCC1CCC(CNC(=S)S)CC1 (stereo not given)
inactive: 786-0 4.63 µM | A498 > 100 µM | BT-549 44.1 µM | HCT-116 19.7 µM | HT-29 17.7 µM | IGROV-1 18.3 µM | K562 14.2 µM | KM12 19.7 µM | NCI-H23 44.5 µM | NCI/ADR-RES 67.8 µM | OVCAR-5 > 100 µM | SF-295 > 100 µM | SK-MEL-2 23.3 µM | SK-MEL-5 87.9 µM | SK-OV-3 > 100 µM | SN12C 20.6 µM | SNB-19 > 100 µM | TK-10 22.6 µM

N=C(N)NS(=O)(=O)c1ccc(/N=N/c2c(O)c(C(=O)O)cc3ccccc23)cc1
inactive: 786-0 > 100 µM | BT-549 > 100 µM | HCT-116 > 100 µM | HT-29 > 100 µM | IGROV-1 > 100 µM | K562 > 100 µM | KM12 > 100 µM | NCI-H226 > 100 µM | NCI-H23 > 100 µM | NCI/ADR-RES > 100 µM | OVCAR-5 > 100 µM | SF-295 > 100 µM | SK-MEL-2 > 100 µM | SK-MEL-5 > 100 µM | SK-OV-3 > 100 µM | SN12C > 100 µM | SR > 100 µM | TK-10 > 100 µM

Cn1c(=O)cc(NCc2ccc(Cl)cc2)[nH]c1=O
inactive: 786-0 54 µM | A498 > 100 µM | BT-549 76.9 µM | HCT-116 52.6 µM | HT-29 > 100 µM | IGROV-1 > 100 µM | K562 > 100 µM | KM12 > 100 µM | NCI-H226 > 100 µM | NCI-H23 > 100 µM | NCI/ADR-RES 72.9 µM | OVCAR-5 > 100 µM | SF-295 30.3 µM | SK-MEL-2 > 100 µM | SK-MEL-5 > 100 µM | SK-OV-3 > 100 µM | SN12C > 100 µM | SNB-19 43.3 µM | TK-10 21.5 µM

Cc1ccc(S(=O)(=O)NC(=O)NC(Cc2ccc(O)cc2)C(=O)O)cc1 (stereo not given)
inactive: 786-0 > 100 µM | BT-549 > 100 µM | HCT-116 > 100 µM | HT-29 > 100 µM | IGROV-1 > 100 µM | K562 > 100 µM | KM12 > 100 µM | NCI-H23 > 100 µM | NCI/ADR-RES > 100 µM | OVCAR-5 > 100 µM | SF-295 > 100 µM | SK-MEL-2 > 100 µM | SK-MEL-5 > 100 µM | SK-OV-3 > 100 µM | SN12C > 100 µM | SNB-19 > 100 µM | SR > 100 µM | TK-10 > 100 µM

COc1ccccc1N1CCN(CCCNC(=O)c2cc(Cl)c(N)c(Cl)c2)CC1
inactive: 786-0 33.3 µM | A498 42 µM | HCT-116 31 µM | HT-29 24.1 µM | IGROV-1 71.6 µM | KM12 26.9 µM | NCI-H226 28.4 µM | NCI-H23 49.7 µM | NCI/ADR-RES 36.8 µM | OVCAR-5 44.6 µM | SF-295 16.3 µM | SK-MEL-5 18.2 µM | SK-OV-3 69.8 µM | SN12C 20 µM | SNB-19 41.3 µM | SR 12.7 µM | TK-10 54.2 µM

CCC(CCN)(CCN)[N+](=O)[O-]
inactive: 786-0 > 100 µM | BT-549 > 100 µM | HCT-116 > 100 µM | HT-29 > 100 µM | IGROV-1 > 100 µM | K562 > 100 µM | KM12 > 100 µM | NCI/ADR-RES > 100 µM | OVCAR-5 > 100 µM | SF-295 > 100 µM | SK-MEL-2 > 100 µM | SK-MEL-5 > 100 µM | SK-OV-3 > 100 µM | SN12C > 100 µM | SR > 100 µM

C=CCN(c1cc(OCc2ccccc2)c2c(c(C)cn2S(=O)(=O)c2ccc([N+](=O)[O-])cc2)c1[N+](=O)[O-])S(C)(=O)=O
inactive: 786-0 > 100 µM | BT-549 > 100 µM | HCT-116 > 100 µM | HT-29 8.77 µM | IGROV-1 > 100 µM | K562 5.08 µM | KM12 4.86 µM | NCI-H226 > 100 µM | NCI-H23 > 100 µM | NCI/ADR-RES > 100 µM | OVCAR-5 > 100 µM | SF-295 > 78.5 µM | SK-MEL-2 > 100 µM | SK-MEL-5 43.7 µM | SK-OV-3 > 100 µM | SN12C > 100 µM | SNB-19 > 100 µM | TK-10 > 100 µM

O=C1C[C@@H](c2ccccc2)O[C@@H](c2ccccc2)C1
inactive: 786-0 > 100 µM | BT-549 > 100 µM | HCT-116 > 100 µM | HT-29 > 100 µM | IGROV-1 > 100 µM | K562 > 100 µM | KM12 > 100 µM | NCI-H226 > 100 µM | NCI-H23 > 100 µM | NCI/ADR-RES > 100 µM | OVCAR-5 > 100 µM | SF-295 > 100 µM | SK-MEL-2 > 100 µM | SK-MEL-5 > 100 µM | SK-OV-3 > 100 µM | SN12C 84.7 µM | SNB-19 > 100 µM

CCOC(=O)[C@@]12C3C=CC(CC3)[C@]1(C(=O)c1ccccc1)C(=O)C(=O)N2c1ccccc1 (stereo not given in full)
inactive: 786-0 > 100 µM | A498 > 100 µM | HCT-116 > 100 µM | HT-29 > 100 µM | K562 > 100 µM | KM12 > 100 µM | NCI-H23 > 100 µM | NCI/ADR-RES > 100 µM | OVCAR-5 > 100 µM | SF-295 > 100 µM | SK-MEL-2 > 100 µM | SK-MEL-5 > 100 µM | SK-OV-3 > 100 µM | SN12C > 100 µM | SNB-19 > 100 µM | SR > 100 µM | TK-10 > 100 µM

NNc1ccccc1Cl
inactive: 786-0 > 100 µM | A498 > 100 µM | BT-549 > 100 µM | HCT-116 > 100 µM | HT-29 > 100 µM | IGROV-1 > 100 µM | K562 4.34 µM | KM12 > 100 µM | NCI-H226 > 100 µM | NCI-H23 > 100 µM | NCI/ADR-RES > 100 µM | OVCAR-5 > 100 µM | SF-295 27.3 µM | SK-MEL-2 > 100 µM | SK-MEL-5 30.5 µM | SK-OV-3 > 100 µM | SN12C > 100 µM | SNB-19 > 100 µM | TK-10 > 100 µM

COc1cccc(/C=C2\N=C(c3ccccc3)OC2=O)c1
inactive: 786-0 74.5 µM | BT-549 40.6 µM | HCT-116 > 100 µM | HT-29 > 100 µM | IGROV-1 34.1 µM | K562 71.1 µM | KM12 73.5 µM | NCI-H226 37.8 µM | NCI-H23 > 100 µM | NCI/ADR-RES 25.8 µM | OVCAR-5 > 100 µM | SF-295 > 100 µM | SK-MEL-2 56.1 µM | SK-MEL-5 50.5 µM | SK-OV-3 > 100 µM | SN12C 65.2 µM | SNB-19 35.1 µM | SR 23.1 µM | TK-10 > 100 µM
